In brackets after ≈: the same amount, converted by molar mass.
Experiments:
Assay in all cases: In vitro antifungal activity, microbroth dilution MIC
Format in all cases: cell-based
Candida krusei K. 11655 = settings: 4 to 48 hours; for Minimal inhibitory concentration (MIC): C. krusei K. 11655, RPMI-1640, 35° C.; for Minimal inhibitory concentration(MIC), C. krusei K. 11655: RPMI-1640, 35° C., no growth observed
Method in brief: (§1)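 Broth microdilution adapted from NCCLS M27, in RPMI-1640 with 0.165 M MOPS, pH 7.0. Yeast or mould inoculum at 2×10^3 CFU/ml was mixed 1:1 with DMSO-derived compound solutions (200 to 0.10 μg/ml before mixing) and incubated at 35 °C for 4 to 48 h. MIC was the concentration showing no growth.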

[1] = test system: Candida albicans IFO. 1385; settings: 4 to 48 hours; for Minimal inhibitory concentration (MIC): C. albicans IFO. 1385, RPMI-1640, 35° C.; for Minimal inhibitory concentration(MIC), C. albicans IFO. 1385: RPMI-1640, 35° C., no growth observed
Method in brief: as §1

[2] = test system: Candida tropicalis A. 13803; settings: 4 to 48 hours; for Minimal inhibitory concentration (MIC): C. tropicalis A. 13803, RPMI-1640, 35° C.; for Minimal inhibitory concentration(MIC), C. tropicalis A. 13803: RPMI-1640, 35° C., no growth observed
Method in brief: as §1

[3] = test system: Candida albicans A. 10231; settings: 4 to 48 hours; for Minimal inhibitory concentration (MIC): C. albicans A. 10231, RPMI-1640, 35° C.
Method in brief: as §1

[4] = test system: Aspergillus furnigatus B. 19119; settings: for Minimal inhibitory concentration (MIC): A furnigatus B. 19119, RPMI-1640, 35° C.; for Minimal inhibitory concentration(MIC), A furnigatus B. 19119: RPMI-1640, 35° C., no growth observed
Method in brief: as §1

[5] = test system: Trichophyton mentagrophytes B. 32663; settings: for Minimal inhibitory concentration (MIC): T. mentagrophytes B. 32663, RPMI-1640, 35° C.; for Minimal inhibitory concentration(MIC), T. mentagrophytes B. 32663: RPMI-1640, 35° C., no growth observed
Method in brief: as §1

Candida albicans C1-2 = settings: 4 to 48 hours; for Minimal inhibitory concentration (MIC): C. albicans C1-2, RPMI-1640, 35° C.
Method in brief: as §1

[6] = test system: Aspergillus niger A. 16404; settings: for Minimal inhibitory concentration (MIC): A. niger A. 16404, RPMI-1640, 35° C.; for Minimal inhibitory concentration(MIC), A. niger A. 16404: RPMI-1640, 35° C., no growth observed
Method in brief: as §1

[7] = test system: Cryptococcus neoformans A. 34144; settings: for Minimal inhibitory concentration (MIC): Cry. neoformans A. 34144, RPMI-1640, 35° C.; for Minimal inhibitory concentration(MIC), Cry. neoformans A. 34144: RPMI-1640, 35° C., no growth observed
Method in brief: as §1

[8] = test system: Candida parapsitosis A. 7330; settings: 4 to 48 hours; for Minimal inhibitory concentration (MIC): C. parapsitosis A. 7330, RPMI-1640, 35° C.; for Minimal inhibitory concentration(MIC), C. parapsitosis A. 7330: RPMI-1640, 35° C., no growth observed
Method in brief: as §1

[9] = test system: Candida pseudotropicalis K. 11658; settings: 4 to 48 hours; for Minimal inhibitory concentration (MIC): C. pseudotropicalis K. 11658, RPMI-1640, 35° C.; for Minimal inhibitory concentration(MIC), C. pseudotropicalis K. 11658: RPMI-1640, 35° C., no growth observed
Method in brief: as §1

[10] = test system: Trichophyton mentagrophytes A. 9129; settings: for Minimal inhibitory concentration (MIC): T. mentagrophytes A. 9129, RPMI-1640, 35° C.; for Minimal inhibitory concentration(MIC), T. mentagrophytes A. 9129: RPMI-1640, 35° C., no growth observed
Method in brief: as §1

[11] = test system: Cryptococcus neoformans IFM. 40092; settings: for Minimal inhibitory concentration (MIC): Cry. neoformans IFM. 40092, RPMI-1640, 35° C.; for Minimal inhibitory concentration(MIC), Cry. neoformans IFM. 40092: RPMI-1640, 35° C., no growth observed
Method in brief: as §1

[12] = test system: Cryptococcus neoformans B. 42419; settings: 4 to 48 hours; for Minimal inhibitory concentration (MIC): Cry. neoformans B. 42419, RPMI-1640, 35° C.; for Minimal inhibitory concentration(MIC), Cry. neoformans B. 42419: RPMI-1640, 35° C., no growth observed
Method in brief: as §1

[13] = test system: Torulopsis glabrata B. 16205; settings: 4 to 48 hours; for Minimal inhibitory concentration (MIC): T. glabrata B. 16205, RPMI-1640, 35° C.; for Minimal inhibitory concentration(MIC), T. glabrata B. 16205: RPMI-1640, 35° C., no growth observed
Method in brief: as §1

[14] = RPMI-1640, 35° C., no growth observed

Minimal inhibitory concentration (MIC) (Candida krusei K. 11655) [µg/mL]	Minimal inhibitory concentration (MIC) [1] [µg/mL]	Minimal inhibitory concentration (MIC) [2] [µg/mL]	Minimal inhibitory concentration (MIC) [3] [µg/mL]	Minimal inhibitory concentration (MIC) ([4]; 4 to 48 hours) [µg/mL]	Minimal inhibitory concentration (MIC) ([5]; 4 to 48 hours) [µg/mL]	Minimal inhibitory concentration (MIC) (Candida albicans C1-2) [µg/mL]	Minimal inhibitory concentration (MIC) ([6]; 4 to 48 hours) [µg/mL]	Minimal inhibitory concentration (MIC) ([7]; 4 to 48 hours) [µg/mL]	Minimal inhibitory concentration (MIC) [8] [µg/mL]	Minimal inhibitory concentration (MIC) [9] [µg/mL]	Minimal inhibitory concentration (MIC) ([10]; 4 to 48 hours) [µg/mL]	Minimal inhibitory concentration (MIC) ([11]; 4 to 48 hours)	Minimal inhibitory concentration (MIC) [12] [µg/mL]	Minimal inhibitory concentration (MIC) [13] [µg/mL]	Minimal inhibitory concentration(MIC), C. krusei K. 11655 (Candida krusei K. 11655) [µg/mL]	Minimal inhibitory concentration(MIC), C. albicans IFO. 1385 [1] [µg/mL]	Minimal inhibitory concentration(MIC), C. tropicalis A. 13803 [2] [µg/mL]	Minimal inhibitory concentration(MIC), C. parapsitosis A. 7330 [8] [µg/mL]	Minimal inhibitory concentration(MIC), C. pseudotropicalis K. 11658 [9] [µg/mL]	Structure (SMILES)	also measured
>100	0.78 (≈ 1.47 µM)	25.0 (≈ 47.1 µM)	6.25 (≈ 11.8 µM)	50.0 (≈ 94.1 µM)	6.25 (≈ 11.8 µM)	6.25 (≈ 11.8 µM)	100 (≈ 188 µM)	0.78 (≈ 1.47 µM)	>100	100 (≈ 188 µM)	12.5 (≈ 23.5 µM)	0.39 µg/mL (≈ 0.734 µM)	1.56 (≈ 2.94 µM)	12.5 (≈ 23.5 µM)	–	–	–	–	–	Cc1ccc(C(=C(F)OCC2COC(Cn3ccnc3)(c3ccc(Cl)cc3Cl)O2)C(F)(F)F)cc1 (stereo not drawn) [Ex. 21]	–
–	–	–	50.0	–	–	50.0	–	–	–	–	–	–	–	–	100	6.25	100	100	25.0	Cc1ccc(C=C(F)OCC2COC(Cn3cncn3)(c3ccc(Cl)cc3Cl)O2)cc1 (mixture of isomers) [Ex. 71]	Minimal inhibitory concentration(MIC), A furnigatus B. 19119 ([4]; 4 to 48 hours): 100 µg/mL; Minimal inhibitory concentration(MIC), T. mentagrophytes B. 32663 ([5]; 4 to 48 hours): 6.25 µg/mL; Minimal inhibitory concentration(MIC), A. niger A. 16404 ([6]; 4 to 48 hours): 100 µg/mL; Minimal inhibitory concentration(MIC), Cry. neoformans A. 34144 ([7]; 4 to 48 hours): 1.56 µg/mL; Minimal inhibitory concentration(MIC), T. mentagrophytes A. 9129 ([10]; 4 to 48 hours): 6.25 µg/mL; Minimal inhibitory concentration(MIC), Cry. neoformans IFM. 40092 ([11]; 4 to 48 hours): 0.20 µg/mL; Minimal inhibitory concentration(MIC), Cry. neoformans B. 42419 [12]: 1.56 µg/mL; Minimal inhibitory concentration(MIC), T. glabrata B. 16205 [13]: 25.0 µg/mL
25.0 (≈ 50.7 µM)	1.56 (≈ 3.16 µM)	50.0 (≈ 101 µM)	25.0 (≈ 50.7 µM)	12.5 (≈ 25.3 µM)	1.56 (≈ 3.16 µM)	12.5 (≈ 25.3 µM)	50.0 (≈ 101 µM)	1.56 (≈ 3.16 µM)	12.5 (≈ 25.3 µM)	6.25 (≈ 12.7 µM)	6.25 (≈ 12.7 µM)	≦0.10 μg/ml	1.56 (≈ 3.16 µM)	12.5 (≈ 25.3 µM)	–	–	–	–	–	CCOc1ccc(C=C(F)OCC2COC(Cn3ccnc3)(c3ccc(Cl)cc3Cl)O2)cc1 (stereo not drawn) [Ex. 10]	–
–	–	–	–	–	–	–	–	–	–	–	–	–	–	–	0.78	0.39	>100	1.56	0.78	FC(=C(c1cc(Cl)cc(Cl)c1)C(F)(F)F)N1CCN(c2ccc(OCC3COC(Cn4ccnc4)(c4ccc(F)cc4F)O3)cc2)CC1 (mixture of isomers) [Ex. 150]	Minimal inhibitory concentration(MIC), C. albicans A. 10231 [3, 14]: >100 µg/mL; Minimal inhibitory concentration(MIC), A furnigatus B. 19119 [4]: 12.5 µg/mL; Minimal inhibitory concentration(MIC), T. mentagrophytes B. 32663 [5]: ≦0.10 μg/ml; Minimal inhibitory concentration(MIC), C. albicans C1-2 (Candida albicans C1-2; [14]): >100 µg/mL; Minimal inhibitory concentration(MIC), A. niger A. 16404 [6]: 100 µg/mL; Minimal inhibitory concentration(MIC), Cry. neoformans A. 34144 [7]: 1.56 µg/mL; Minimal inhibitory concentration(MIC), T. mentagrophytes A. 9129 [10]: 3.13 µg/mL; Minimal inhibitory concentration(MIC), Cry. neoformans IFM. 40092 [11]: ≦0.10 μg/ml; Minimal inhibitory concentration(MIC), Cry. neoformans B. 42419 [12]: 0.39 µg/mL; Minimal inhibitory concentration(MIC), T. glabrata B. 16205 [13]: 50.0 µg/mL

From patent publication US6376497B1, “Antifungal azole derivatives having a fluorinated vinyl group and process for preparing same” (Korea Research Institute of Chemical Technology, priority 1999, dated 2002)
